In article PMC9101188, “Human α-Defensin-6 Neutralizes Clostridioides difficile Toxins TcdA and TcdB by Direct Binding” (International Journal of Molecular Sciences, 2022):
pIC50: −log10 of the molar value.

How the values were obtained:
Rac1 [1] = type: cell-based, African green monkey
SARS-CoV-2 = settings: ref [55]; cited from earlier work
From the text: There is increasing evidence that α-def-6 represents an outlier among the α-defensins, which is also noticeable in the context of bacterial toxins. Anti-toxin activities have already been described for several α-defensins.

TcdB autoprotease domain = assay: In vitro autoprocessing of TcdB (InsP6-induced autoprotease activity); type: biochemical, C. difficile VPI 10463; settings: TcdB 2 µg, InsP6 1 mM; α-def-6 3 µM, 9 µM; 1 h, 37 °C, pH 7.4; SDS-PAGE, Coomassie (n = 2)
Description: (§1) The flow rate was 25 µL/min. […] A representative gel is shown (n = 2). […] GAPDH served as the loading control. A representative Western blot is shown.
The effects of α-def-6 on TcdB autoprocessing by its intrinsic cysteine protease activity were analyzed. […] Inositol hexakisphosphate (1 mM, Santa Cruz Biotechnology, Dallas, TX, USA) was added to the samples to induce autoprocessing. N-Ethylmaleimide (1 mM, Sigma Aldrich by Merck KGaA, Darmstadt, Germany) served as positive control for the inhibition of TcdB-autoprocessing. The reactions were stopped by addition of a Laemmli buffer and heat denaturation (95 °C). For the analysis, the samples were electrophoresed on 8% SDS polyacrylamide gels, and proteins were visualized by Coomassie staining.

Rac1 [2] = type: cell-based, African green monkey; remark: listed apart in the source
CaCo-2 cells [3] = test system: CaCo-2 cells
TcdB-DL488 = molecular target: T1, TcdB-DL488 (Clostridioides difficile, UniProt P18177); assay: Aggregation of TcdB-DL488 over time in the absence of cells (fluorescence microscopy); design: species or system C. difficile VPI 10463; settings: α-def-6 6 µM, TcdB-DL488 30 nM in PBS, 37 °C
T1 construct: The native toxins TcdA and TcdB from C. difficile VPI 10463 were expressed and purified; made in house; host or cells: C. difficile VPI 10463 (inferred from "native toxins")
T1 sequence (P18177 whole entry): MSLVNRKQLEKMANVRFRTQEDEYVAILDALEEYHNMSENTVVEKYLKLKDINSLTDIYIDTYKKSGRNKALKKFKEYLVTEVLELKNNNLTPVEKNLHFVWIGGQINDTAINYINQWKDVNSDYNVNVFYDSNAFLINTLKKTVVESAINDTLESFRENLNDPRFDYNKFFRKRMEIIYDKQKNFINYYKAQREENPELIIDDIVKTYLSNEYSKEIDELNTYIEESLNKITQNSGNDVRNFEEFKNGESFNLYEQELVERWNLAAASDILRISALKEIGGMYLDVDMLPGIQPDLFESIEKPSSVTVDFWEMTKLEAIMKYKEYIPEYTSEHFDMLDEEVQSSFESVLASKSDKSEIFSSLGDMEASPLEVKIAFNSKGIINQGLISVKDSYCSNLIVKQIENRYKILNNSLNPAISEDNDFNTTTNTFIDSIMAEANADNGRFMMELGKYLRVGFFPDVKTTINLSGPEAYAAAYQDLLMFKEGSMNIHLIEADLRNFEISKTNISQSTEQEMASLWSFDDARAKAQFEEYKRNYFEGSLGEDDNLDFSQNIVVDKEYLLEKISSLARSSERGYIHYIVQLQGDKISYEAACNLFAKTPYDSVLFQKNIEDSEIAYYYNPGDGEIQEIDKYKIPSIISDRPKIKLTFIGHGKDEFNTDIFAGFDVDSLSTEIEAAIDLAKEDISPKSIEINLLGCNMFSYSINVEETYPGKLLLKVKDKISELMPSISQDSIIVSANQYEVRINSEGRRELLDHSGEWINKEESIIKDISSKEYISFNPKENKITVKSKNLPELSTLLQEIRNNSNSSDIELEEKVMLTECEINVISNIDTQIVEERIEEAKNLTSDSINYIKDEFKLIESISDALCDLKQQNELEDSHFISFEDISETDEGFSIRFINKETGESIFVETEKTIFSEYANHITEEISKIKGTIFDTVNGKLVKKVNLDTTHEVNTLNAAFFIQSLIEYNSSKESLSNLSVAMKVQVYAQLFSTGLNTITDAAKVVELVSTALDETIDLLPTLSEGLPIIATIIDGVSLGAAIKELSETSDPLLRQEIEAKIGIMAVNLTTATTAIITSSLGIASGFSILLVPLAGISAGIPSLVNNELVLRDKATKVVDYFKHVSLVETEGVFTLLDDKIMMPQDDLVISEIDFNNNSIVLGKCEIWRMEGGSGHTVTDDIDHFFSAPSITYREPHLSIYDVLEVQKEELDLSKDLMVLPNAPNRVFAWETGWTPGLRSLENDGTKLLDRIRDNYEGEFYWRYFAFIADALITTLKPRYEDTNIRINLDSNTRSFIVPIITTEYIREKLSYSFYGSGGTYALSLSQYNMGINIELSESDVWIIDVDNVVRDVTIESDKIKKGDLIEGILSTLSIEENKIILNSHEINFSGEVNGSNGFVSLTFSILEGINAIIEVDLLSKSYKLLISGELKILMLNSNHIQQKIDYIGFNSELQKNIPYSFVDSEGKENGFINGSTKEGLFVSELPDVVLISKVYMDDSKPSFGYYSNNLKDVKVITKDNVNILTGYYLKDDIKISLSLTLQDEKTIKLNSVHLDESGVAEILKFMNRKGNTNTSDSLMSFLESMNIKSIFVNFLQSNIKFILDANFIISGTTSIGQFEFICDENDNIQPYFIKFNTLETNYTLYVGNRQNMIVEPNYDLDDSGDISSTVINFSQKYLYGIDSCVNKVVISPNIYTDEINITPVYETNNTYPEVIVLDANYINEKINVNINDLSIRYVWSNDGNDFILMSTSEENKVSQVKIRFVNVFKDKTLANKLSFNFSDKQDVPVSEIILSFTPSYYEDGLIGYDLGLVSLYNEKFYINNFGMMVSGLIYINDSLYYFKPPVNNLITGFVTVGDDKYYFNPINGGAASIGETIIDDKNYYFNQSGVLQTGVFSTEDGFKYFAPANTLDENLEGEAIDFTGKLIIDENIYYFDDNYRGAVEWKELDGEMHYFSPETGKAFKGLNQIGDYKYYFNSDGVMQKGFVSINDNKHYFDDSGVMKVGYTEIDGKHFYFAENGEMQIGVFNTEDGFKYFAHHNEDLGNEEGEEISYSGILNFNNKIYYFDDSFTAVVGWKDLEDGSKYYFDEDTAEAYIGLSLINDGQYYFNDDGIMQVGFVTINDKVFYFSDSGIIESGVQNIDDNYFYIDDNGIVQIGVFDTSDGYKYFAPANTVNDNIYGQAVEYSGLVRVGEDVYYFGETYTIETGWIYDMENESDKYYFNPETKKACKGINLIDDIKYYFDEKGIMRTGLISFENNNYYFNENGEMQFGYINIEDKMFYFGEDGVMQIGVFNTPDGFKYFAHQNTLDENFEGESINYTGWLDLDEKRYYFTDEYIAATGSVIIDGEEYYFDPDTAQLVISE
Description: Cells were fixed and permeabilized. […] Scale bars correspond to 50 µm. […] TcdB was detected.
Simultaneously the same volume of PBS was exposed to DyLight^TM 488 NHS-Ester to serve as a negative control in experiments. To remove free fluorescence dye, the samples were rebuffered by passing through Zeba^TM Spin Desalting Columns via centrifugation.
Aggregation was allowed to proceed for 30 min at 37 °C. Images were taken every second for the first 5 min and every 10 s for additional 25 min. Images were processed using ImageJ.

zebrafish embryos = settings: in vivo
TcdB = settings: SPR, 2400 RUs biotinylated TcdB on streptavidin chip; α-def-6 0.1 to 6 µM; 10 mM HEPES, 150 mM NaCl, 50 µM EDTA, 0.005% Tween 20, pH 7.0; 25 µL/min, 25 °C; 4 min injection
Description: (A) 2400 RUs of biotinylated TcdB were immobilized via streptavidin-biotin binding onto a streptavidin sensor chip, and α-def-6 (concentrations as indicated) was applied to the chip for 4 min followed by a dissociation phase with a flow of running buffer. A solution of 6 µM of α-def-6 was injected twice to assess reproducibility, and β-def-1 (6 µM) served as a control. The flow rate was 25 µL/min.
TcdB was biotinylated via EZ-Link^TM Sulfo-NHS-Biotin (Thermo Fisher Scientific, Waltham, MA, USA) according to the manufacturer’s protocol. Briefly, TcdB was incubated with Sulfo-NHS-Biotin for 30 min at room temperature (RT). To remove the excess non-reacted biotin, TcdB was rebuffered with a Zeba^TM Spin Desalting Column (Thermo Fisher Scientific, Waltham, MA, USA). The successful biotinylation was verified via Western blotting and detection with peroxidase-conjugated streptavidin (1:2500, F. Hoffmann-La Roche AG, Basel, Switzerland).
The binding of α-def-6 to biotinylated TcdB was analyzed via surface plasmon resonance spectroscopy (SPR) with a Reichert SPR7500DC SPR spectrometer (Reichert Technologies, Buffalo, NY, USA). All analytes were dialyzed in running buffer (10 mM HEPES, 150 mM NaCl, 50 µM EDTA, 0.005% (v/v) Tween®20, pH 7.0) beforehand. Experiments were performed with a flow rate of 25 µL/min at 25 °C. […]

Rac1 [4] = type: cell-based, African green monkey; remark: listed apart in the source
TcdB glucosyltransferase = assay: UDP-Glo glucosyltransferase assay; type: biochemical, C. difficile VPI 10463; settings: TcdB 200 pM, recombinant Rac1 5 µM, UDP-glucose 100 µM, 1 h, 37 °C, pH 7.5, luminescence (n ≥ 3)
Description: as §1
UDP-Glo™ Glucosyltransferase assay with UDP-Glucose (Promega Corporation, Madison, WI, USA) was performed according to the manufacturer’s protocol. Briefly, TcdB (200 pM) was incubated in glucosylation buffer (50 mM HEPES, 100 mM KCl, 2 mM MgCl2, 1 mM MnCl2, 100 mg/L BSA, pH 7.5) with various concentrations of the respective inhibitors in a final volume of 40 µL. 5 µM recombinant Rac1 was included in the samples as a substrate. […] Castanospermine (10 mM, Santa Cruz Biotechnology, Dallas, TX, USA) served as control for inhibition of glucosyltransferase activity of TcdB. To stop the reaction, three times 10 µL of each sample were transferred to a white half area 96 well microplate (Greiner Bio-One International GmbH, Kremsmünster, Austria) combined with 10 µL of UDP Detection Reagent and mixed at 1000 rpm for 30 s on a plate shaker (Titramax 1000, Heidolph Instruments GmbH & Co. KG, Schwabach, Germany). Luminescence was recorded after 15–60 min via a Tecan infinite M1000 Pro plate reader (Tecan, Männdorf, Switzerland) with an integration time of 750 ms.

CaCo-2 cells [5] = test system: CaCo-2 cells; remark: listed apart in the source

## CC[C@H](C)[C@@H]1NC(=O)CNC(=O)[C@H](CCSC)NC(=O)[C@H](C(C)C)NC(=O)[C@H]([C@@H](C)O)NC(=O)[C@@H]2CSSC[C@@H]3NC(=O)[C@H](Cc4c[nH]cn4)NC(=O)[C@@H](NC(=O)[C@@H](NC(=O)[C@H](Cc4ccccc4)NC(=O)[C@H](C)N)[C@@H](C)O)CSSC[C@@H](C(=O)N[C@@H](CC(C)C)C(=O)O)NC(=O)[C@H](CSSC[C@H](NC(=O)[C@H](CO)NC(=O)[C@H](CCCNC(=N)N)NC(=O)[C@H](CCCNC(=N)N)NC3=O)C(=O)N[C@@H](Cc3ccc(O)cc3)C(=O)N[C@@H](CO)C(=O)N[C@@H]([C@@H](C)O)C(=O)N[C@@H](CCC(=O)O)C(=O)N[C@@H](Cc3ccc(O)cc3)C(=O)N[C@@H](CO)C(=O)N[C@@H](Cc3ccc(O)cc3)C(=O)NCC(=O)N[C@@H]([C@@H](C)O)C(=O)N2)NC(=O)[C@H](Cc2ccccc2)NC(=O)[C@H](CCCNC(=N)N)NC(=O)[C@H](Cc2c[nH]cn2)NC(=O)[C@H](CC(N)=O)NC1=O [α-def-6]
Rac1 [1]
  glucosylation of Rac1 in intact cells: less Rac1 was glucosylated
CaCo-2 monolayer
  TEER, TcdB: clear delay in TEER-reduction
  cytotoxic effects on the monolayer, TcdB: time-dependent inhibition of the cytotoxic effects on the monolayer
SARS-CoV-2
  prevention of infection of cells with SARS-CoV-2: cannot prevent the infection of cells with SARS-CoV-2
TcdB autoprotease domain
  release of the glucosyltransferase domain by the autoprotease domain (effect of substance): not affected
Rac1 [2]
  glucosylation of Rac1 by TcdA: clearly less Rac1 was glucosylated
Vero cells
  inhibition of toxin effects on cells, TcdB: clear inhibition
  protection of cells against TcdB: almost complete protection
  reduction of the amount of rounded cells: clear concentration-dependent reduction of the amount of rounded cells
Vero cells; 5 h
  pIC50: ~6.30
CaCo-2 cells [3]
  amount of rounded CaCo-2 cells, TcdA: reduced amount of rounded CaCo-2 cells was visible for at least 6 h
TcdB-DL488
  time of formation of toxin-defensin aggregates: within a few seconds to minutes
TcdB-DL488; 0.5 h, no cells (n ≥ 2)
  formation of toxin-defensin complexes: very fast and distinct formation of large toxin-defensin complexes
Zebrafish embryos
  effect on TcdB-induced cytotoxicity and cardiotoxicity: very efficiently reversed both the cytotoxic and cardiotoxic effects of TcdB
  toxicity of α-def-6 alone: did not show any toxicity
TcdB
  interaction with immobilized TcdB: direct, concentration-dependent interaction
Rac1 [4]
  Rac1 modification by TcdA + TcdB: diminished the toxin-mediated Rac1-modification
TcdB glucosyltransferase
  inhibition of glucosyltransferase activity of TcdB: not able to inhibit glucosyltransferase activity
CaCo-2 cells [5]
  amount of rounded CaCo-2 cells, TcdA + TcdB: reduced amount of rounded CaCo-2 cells was visible for at least 6 h
